In ChEMBL document CHEMBL4190336, “Discovery of a Novel Series of 7-Azaindole Scaffold Derivatives as PI3K Inhibitors with Potent Activity” (ACS Med Chem Lett, 2017) one finds IC50 and GI50 data, which are given here for 23 compounds.

For assay [1], the target named is Phosphatidylinositol 4,5-bisphosphate 3-kinase catalytic subunit beta isoform (Homo sapiens, UniProt P42338). In words: Inhibition of recombinant human PI3K p110beta using PIP2/PS as substrate after 1 hr by ADP-Glo luminescence assay.
Chain of Phosphatidylinositol 4,5-bisphosphate 3-kinase catalytic subunit beta isoform (P42338 whole entry, canonical isoform): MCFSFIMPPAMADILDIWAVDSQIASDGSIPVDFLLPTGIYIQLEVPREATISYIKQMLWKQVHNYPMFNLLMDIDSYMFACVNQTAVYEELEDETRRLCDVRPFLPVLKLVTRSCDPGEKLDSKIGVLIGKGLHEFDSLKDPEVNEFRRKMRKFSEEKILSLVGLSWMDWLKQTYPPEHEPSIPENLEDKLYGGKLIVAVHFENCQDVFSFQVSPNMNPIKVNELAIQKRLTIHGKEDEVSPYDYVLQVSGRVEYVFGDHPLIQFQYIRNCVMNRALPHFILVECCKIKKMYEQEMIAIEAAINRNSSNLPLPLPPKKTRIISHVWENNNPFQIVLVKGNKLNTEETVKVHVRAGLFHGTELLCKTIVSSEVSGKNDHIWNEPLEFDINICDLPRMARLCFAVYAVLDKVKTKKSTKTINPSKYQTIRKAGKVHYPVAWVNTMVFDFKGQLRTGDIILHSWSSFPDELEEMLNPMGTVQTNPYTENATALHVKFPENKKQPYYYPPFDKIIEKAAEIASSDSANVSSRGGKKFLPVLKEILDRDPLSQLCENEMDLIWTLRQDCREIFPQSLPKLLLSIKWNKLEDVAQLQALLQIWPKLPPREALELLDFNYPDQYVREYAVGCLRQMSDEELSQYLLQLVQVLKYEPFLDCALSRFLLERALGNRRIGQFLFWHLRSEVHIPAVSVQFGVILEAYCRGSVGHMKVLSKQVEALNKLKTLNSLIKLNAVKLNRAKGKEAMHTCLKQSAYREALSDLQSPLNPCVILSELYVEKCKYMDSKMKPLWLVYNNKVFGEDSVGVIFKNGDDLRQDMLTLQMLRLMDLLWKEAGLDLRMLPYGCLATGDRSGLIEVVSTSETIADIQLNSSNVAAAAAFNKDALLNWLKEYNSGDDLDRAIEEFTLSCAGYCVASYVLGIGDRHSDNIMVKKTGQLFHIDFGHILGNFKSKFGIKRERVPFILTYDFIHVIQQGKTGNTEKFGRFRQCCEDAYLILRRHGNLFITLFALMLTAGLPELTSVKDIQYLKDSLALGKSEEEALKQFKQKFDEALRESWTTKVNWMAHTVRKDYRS
The test system of a further assay is NCI-H460. In words: Growth inhibition of human NCI-H460 cells after 72 hrs by SRB assay. Type of assay: functional. Conditions: NCI-H460, 72 h.
A further assay relates to KARPAS-422. In words: Growth inhibition of human KARPAS422 cells by CCK8 assay. Type of assay: functional.
Assay [2] deals with PI3-kinase p110-alpha/p85-alpha (Homo sapiens, UniProt P42336). In words: Inhibition of recombinant full length N-terminal His-tagged human PI3K p110alpha/p85alpha expressed in baculovirus expression system using PIP2/PS as substrate after 1 hr by ADP-Glo luminescence assay.
Chain of PI3-kinase p110-alpha/p85-alpha (P27986 whole entry): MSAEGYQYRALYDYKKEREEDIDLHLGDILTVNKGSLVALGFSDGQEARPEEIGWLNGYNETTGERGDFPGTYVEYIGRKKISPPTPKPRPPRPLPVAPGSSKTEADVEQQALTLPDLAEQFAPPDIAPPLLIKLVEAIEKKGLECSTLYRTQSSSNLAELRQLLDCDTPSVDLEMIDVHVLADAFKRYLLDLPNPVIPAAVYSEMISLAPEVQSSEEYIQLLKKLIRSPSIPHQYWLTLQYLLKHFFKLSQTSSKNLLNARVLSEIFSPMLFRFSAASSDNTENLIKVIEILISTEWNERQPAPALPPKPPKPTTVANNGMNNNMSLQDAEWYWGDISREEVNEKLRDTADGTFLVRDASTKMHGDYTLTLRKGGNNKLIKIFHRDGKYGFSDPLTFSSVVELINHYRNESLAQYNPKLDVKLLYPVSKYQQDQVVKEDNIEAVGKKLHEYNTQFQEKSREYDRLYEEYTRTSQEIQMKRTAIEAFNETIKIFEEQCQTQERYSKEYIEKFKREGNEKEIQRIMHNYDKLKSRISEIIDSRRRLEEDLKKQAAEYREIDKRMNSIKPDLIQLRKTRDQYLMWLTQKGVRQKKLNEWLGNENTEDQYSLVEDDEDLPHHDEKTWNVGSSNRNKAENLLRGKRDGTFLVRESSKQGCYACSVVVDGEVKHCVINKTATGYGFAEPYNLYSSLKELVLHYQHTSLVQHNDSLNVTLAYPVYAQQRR
Chain of PI3-kinase p110-alpha/p85-alpha (P42336 whole entry): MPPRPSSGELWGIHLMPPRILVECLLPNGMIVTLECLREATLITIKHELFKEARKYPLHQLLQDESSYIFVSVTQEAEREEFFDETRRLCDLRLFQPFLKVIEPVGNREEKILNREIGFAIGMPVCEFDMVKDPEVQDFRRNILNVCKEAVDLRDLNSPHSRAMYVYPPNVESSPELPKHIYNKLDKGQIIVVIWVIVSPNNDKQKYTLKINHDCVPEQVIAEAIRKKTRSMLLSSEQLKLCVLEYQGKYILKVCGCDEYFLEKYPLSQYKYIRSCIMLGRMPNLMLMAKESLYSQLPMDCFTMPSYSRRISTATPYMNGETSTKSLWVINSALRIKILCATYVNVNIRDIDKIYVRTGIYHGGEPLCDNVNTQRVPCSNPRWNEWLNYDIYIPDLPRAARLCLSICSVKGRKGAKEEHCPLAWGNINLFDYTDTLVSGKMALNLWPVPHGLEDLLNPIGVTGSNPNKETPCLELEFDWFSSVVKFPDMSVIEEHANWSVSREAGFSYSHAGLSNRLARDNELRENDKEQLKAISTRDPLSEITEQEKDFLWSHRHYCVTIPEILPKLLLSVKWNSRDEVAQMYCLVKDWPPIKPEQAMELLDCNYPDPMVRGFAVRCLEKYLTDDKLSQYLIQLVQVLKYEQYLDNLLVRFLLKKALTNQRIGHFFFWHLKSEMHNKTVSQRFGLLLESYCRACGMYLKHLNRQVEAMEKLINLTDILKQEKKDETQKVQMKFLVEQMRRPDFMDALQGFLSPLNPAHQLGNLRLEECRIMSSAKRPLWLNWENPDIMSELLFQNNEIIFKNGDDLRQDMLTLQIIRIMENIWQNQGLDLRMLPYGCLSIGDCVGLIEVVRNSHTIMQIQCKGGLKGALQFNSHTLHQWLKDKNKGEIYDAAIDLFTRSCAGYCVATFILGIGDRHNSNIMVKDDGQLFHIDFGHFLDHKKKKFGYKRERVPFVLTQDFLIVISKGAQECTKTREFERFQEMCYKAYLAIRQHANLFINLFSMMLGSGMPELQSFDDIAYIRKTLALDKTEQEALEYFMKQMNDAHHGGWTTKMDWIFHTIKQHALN
Assay [3] addresses PI3-kinase p110-delta/p85-alpha (Homo sapiens, UniProt O00329). In words: Inhibition of recombinant human full length His-tagged PI3K p110delta/p85alpha expressed in baculovirus expression system using PIP2/PS as substrate after 1 hr by ADP-Glo luminescence assay.
Another assay relates to Pfeiffer. In words: Growth inhibition of human Pfeiffer cells by CCK8 assay. Type of assay: functional.
In a further assay the test system is U-87 MG. In words: Growth inhibition of human U87MG cells after 72 hrs by SRB assay. Type of assay: functional, U-87MG ATCC.
In another assay the test system is MCF7. In words: Growth inhibition of human MCF7 cells after 72 hrs by SRB assay. Type of assay: functional. The following applies: MCF7, 72 h.
Another assay concerns T47D. In words: Growth inhibition of human T47D cells after 72 hrs by SRB assay. Type of assay: functional.
Assay [4] has as its target Phosphatidylinositol 4,5-bisphosphate 3-kinase catalytic subunit gamma isoform (Homo sapiens, UniProt P48736).
Description: Inhibition of recombinant full length His-tagged human PI3K p110gamma expressed in baculovirus expression system using PIP2/PS as substrate after 1 hr by ADP-Glo luminescence assay

Chain of PI3-kinase p110-delta/p85-alpha (P27986 whole entry): as the sequence (P27986 whole entry) above
Chain of PI3-kinase p110-delta/p85-alpha (O00329 whole entry): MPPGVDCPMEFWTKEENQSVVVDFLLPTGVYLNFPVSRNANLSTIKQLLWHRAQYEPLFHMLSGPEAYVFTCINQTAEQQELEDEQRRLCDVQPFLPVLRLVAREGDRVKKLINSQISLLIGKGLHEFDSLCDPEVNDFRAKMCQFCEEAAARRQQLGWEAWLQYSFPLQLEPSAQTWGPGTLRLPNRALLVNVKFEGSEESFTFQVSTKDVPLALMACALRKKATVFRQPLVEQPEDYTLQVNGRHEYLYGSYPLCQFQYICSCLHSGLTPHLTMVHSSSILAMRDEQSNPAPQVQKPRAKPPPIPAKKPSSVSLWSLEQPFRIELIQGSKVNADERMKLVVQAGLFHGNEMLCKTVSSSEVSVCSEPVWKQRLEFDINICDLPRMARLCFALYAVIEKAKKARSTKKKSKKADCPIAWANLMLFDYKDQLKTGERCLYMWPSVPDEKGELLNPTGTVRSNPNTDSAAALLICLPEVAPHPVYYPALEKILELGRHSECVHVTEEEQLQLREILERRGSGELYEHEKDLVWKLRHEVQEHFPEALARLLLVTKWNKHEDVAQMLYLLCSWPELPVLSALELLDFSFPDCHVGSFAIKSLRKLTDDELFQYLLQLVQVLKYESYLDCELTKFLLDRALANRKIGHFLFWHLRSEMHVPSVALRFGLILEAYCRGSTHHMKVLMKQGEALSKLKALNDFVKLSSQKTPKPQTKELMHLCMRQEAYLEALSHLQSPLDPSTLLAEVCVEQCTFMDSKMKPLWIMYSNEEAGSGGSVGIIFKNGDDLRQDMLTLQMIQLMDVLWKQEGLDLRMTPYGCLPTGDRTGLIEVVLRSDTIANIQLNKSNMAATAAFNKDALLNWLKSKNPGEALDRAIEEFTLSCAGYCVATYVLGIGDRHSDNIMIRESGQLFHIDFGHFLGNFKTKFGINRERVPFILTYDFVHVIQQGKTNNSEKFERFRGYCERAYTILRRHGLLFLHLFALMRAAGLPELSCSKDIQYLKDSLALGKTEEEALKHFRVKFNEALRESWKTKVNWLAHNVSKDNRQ
Chain of Phosphatidylinositol 4,5-bisphosphate 3-kinase catalytic subunit gamma isoform (P48736 whole entry, canonical isoform): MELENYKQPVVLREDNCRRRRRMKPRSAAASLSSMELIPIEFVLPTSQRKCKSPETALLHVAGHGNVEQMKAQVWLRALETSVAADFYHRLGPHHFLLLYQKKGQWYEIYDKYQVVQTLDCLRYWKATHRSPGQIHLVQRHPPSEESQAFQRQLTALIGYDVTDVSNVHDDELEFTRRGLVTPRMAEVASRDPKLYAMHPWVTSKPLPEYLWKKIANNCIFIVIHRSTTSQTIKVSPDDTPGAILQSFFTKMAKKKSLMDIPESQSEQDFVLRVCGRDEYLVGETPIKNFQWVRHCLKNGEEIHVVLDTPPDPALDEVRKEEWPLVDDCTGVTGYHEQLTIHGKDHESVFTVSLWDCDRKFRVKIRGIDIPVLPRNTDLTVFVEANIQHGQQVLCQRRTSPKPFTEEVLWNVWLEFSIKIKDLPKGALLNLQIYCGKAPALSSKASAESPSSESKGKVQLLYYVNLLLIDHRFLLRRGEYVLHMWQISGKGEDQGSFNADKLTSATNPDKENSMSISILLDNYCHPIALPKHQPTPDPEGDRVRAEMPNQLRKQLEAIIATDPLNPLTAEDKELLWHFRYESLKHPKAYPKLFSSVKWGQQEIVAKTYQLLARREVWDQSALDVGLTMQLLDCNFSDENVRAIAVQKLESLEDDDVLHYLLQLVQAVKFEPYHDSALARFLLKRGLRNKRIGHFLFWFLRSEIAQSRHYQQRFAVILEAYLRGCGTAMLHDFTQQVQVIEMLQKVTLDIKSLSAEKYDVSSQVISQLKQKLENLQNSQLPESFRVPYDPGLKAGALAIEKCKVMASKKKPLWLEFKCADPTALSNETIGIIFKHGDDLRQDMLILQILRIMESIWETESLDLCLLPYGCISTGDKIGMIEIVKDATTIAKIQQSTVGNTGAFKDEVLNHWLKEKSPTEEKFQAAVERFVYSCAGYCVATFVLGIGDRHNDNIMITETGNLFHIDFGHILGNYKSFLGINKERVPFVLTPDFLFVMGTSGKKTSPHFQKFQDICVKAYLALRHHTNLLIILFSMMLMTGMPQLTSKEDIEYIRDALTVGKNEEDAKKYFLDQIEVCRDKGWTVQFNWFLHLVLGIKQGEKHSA

Consider `O=S(=O)(Nc1cc(-c2cnc3[nH]nc(-c4ccncc4)c3c2)cnc1Cl)c1ccccc1`, for which the IC50 was 0.004 µM in assay [1], 0.001 µM in assay [2], 0.0007 µM in assay [3] and 0.007 µM in assay [4]. The GI50 with NCI-H460 amounted to 2.5 µM; in the assay on KARPAS-422, 0.17 µM; with Pfeiffer, 0.15 µM; with U-87 MG, 3.12 µM; in the assay on MCF7, 0.69 µM; with T47D, 0.52 µM.
`O=S(=O)(Nc1cc(-c2cnc3[nH]nc(-c4ccccc4)c3c2)cnc1Cl)c1ccccc1`: the IC50 was 0.006 µM in assay [1], 0.002 µM in [2], 0.001 µM in assay [3] and 0.017 µM in assay [4]. The 50% growth inhibitory concentration (GI50) is 8.65 µM with NCI-H460; 1.23 µM with KARPAS-422; 1.3 µM with Pfeiffer; greater than 10 µM in the assay with U-87 MG; 7.37 µM with MCF7; 4.19 µM in the assay on T47D.
Consider `CCNc1ccc(-c2cnc(Cl)c(NS(=O)(=O)c3ccccc3)c2)cn1`, for which the concentration for half-maximal inhibition (IC50) in assay [4] turned out to be 1.49 µM.
Same read-out and setting: the value for `Cc1cc2cc(-c3cnc(Cl)c(NS(=O)(=O)c4ccccc4)c3)cnc2[nH]1` was 0.063 µM; that for `CC(=O)Nc1ccc(-c2cnc(Cl)c(NS(=O)(=O)c3ccccc3)c2)cn1` was 0.42 µM.
Consider `COc1ncc(-c2ccc(N)nc2)cc1NS(=O)(=O)c1ccccc1`, for which the IC50 in assay [4] was found to be 2.06 µM.
Same read-out and setting: then `CCc1cc2cc(-c3cnc(Cl)c(NS(=O)(=O)c4ccccc4)c3)cnc2[nH]1`, with 0.155 µM.
For `O=S(=O)(Nc1cc(-c2cnc3[nH]cc(-c4ccncc4)c3c2)cnc1Cl)c1ccc(F)cc1`, the IC50 in assay [1] was found to be 0.002 µM; in assay [2], 0.001 µM; in [3] it was 0.0004 µM; in [4], 0.0007 µM. Besides, the GI50 in the assay on NCI-H460 is 6.19 µM; in the assay on KARPAS-422, 0.37 µM; in the assay on Pfeiffer it was 0.41 µM; in the assay on U-87 MG, greater than 10 µM; in the assay with MCF7, 2.91 µM; in the assay on T47D, 1.3 µM.
Take `CS(=O)(=O)Nc1ccc(-c2cnc(Cl)c(NS(=O)(=O)c3ccccc3)c2)cn1`: the IC50 in [4] stood at 4.75 µM.
The same measure, in the same setting: then `Nc1ccc(-c2cncc(NS(=O)(=O)c3ccccc3)c2)cn1`, with 1.59 µM.
With `CC[C@H](Nc1ncnc2[nH]cnc12)c1nc2cccc(F)c2c(=O)n1-c1ccccc1` [IDELALISIB], the GI50 with KARPAS-422 is 0.68 µM; with Pfeiffer, 0.74 µM.
`Cc1ncc(-c2ccc(N)nc2)cc1NS(=O)(=O)c1ccccc1`: the IC50 in [4] stood at 0.381 µM.
In the case of `O=S(=O)(Nc1cc(-c2cnc3[nH]cc(-c4ccncc4)c3c2)cnc1Cl)c1ccccc1F`, the IC50 in assay [1] amounted to 0.003 µM; in [2], 0.001 µM; in assay [3], 0.0005 µM; in assay [4], 0.0007 µM. Besides, the GI50 in the assay on NCI-H460 was greater than 10 µM; in the assay on KARPAS-422, 0.35 µM; in the assay on Pfeiffer, 0.29 µM; with U-87 MG, 7.13 µM; in the assay on MCF7, 2.5 µM; in the assay on T47D, 1.79 µM.
Take `CN(C)C(=O)Nc1ccc(-c2cnc(Cl)c(NS(=O)(=O)c3ccccc3)c2)cn1`: in assay [4], inhibition was half-maximal at 0.068 µM (IC50).
On the same count and under the same terms, the value for `Nc1ccc(-c2cnc(Cl)c(NS(=O)(=O)c3ccccc3)c2)cn1` was 0.375 µM.
Regarding `O=S(=O)(Nc1cc(-c2cnc3[nH]cc(-c4ccncc4)c3c2)cnc1Cl)c1ccccc1`, the IC50 in assay [1] came to 0.002 µM; in [2] it was 0.001 µM; in assay [3] it was 0.0006 µM; in assay [4] it was 0.0005 µM. The GI50 is 3.9 µM in the assay on NCI-H460; 0.12 µM in the assay with KARPAS-422; 0.1 µM in the assay on Pfeiffer; 8.95 µM in the assay with U-87 MG; 2.14 µM in the assay on MCF7; 1.5 µM in the assay on T47D.
For the compound `O=S(=O)(Nc1cc(-c2cnc3[nH]ncc3c2)cnc1Cl)c1ccccc1`, the IC50 stood at 0.029 µM in assay [1], 0.051 µM in [2], 0.001 µM in assay [3] and 0.037 µM in [4]. Besides, the GI50 in the assay with NCI-H460 amounted to 7.61 µM; in the assay with KARPAS-422 it was 1.09 µM; in the assay with Pfeiffer it was 1.16 µM; in the assay on U-87 MG, 8.94 µM; in the assay on MCF7 it was 7.4 µM; in the assay with T47D, 4.4 µM.
`O=C(Nc1ccc(-c2cnc(Cl)c(NS(=O)(=O)c3ccccc3)c2)cn1)C1CC1` came in with an IC50 in assay [4] of 0.445 µM.
Take `Cn1c(=O)n(-c2ccc(C(C)(C)C#N)cc2)c2c3cc(-c4cnc5ccccc5c4)ccc3ncc21` [DACTOLISIB]: the 50% growth inhibitory concentration (GI50) turned out to be 0.61 µM in the assay with NCI-H460, 0.28 µM with U-87 MG, 0.06 µM in the assay with MCF7 and 0.3 µM with T47D.
Take `O=S(=O)(Nc1cc(-c2cnc3[nH]c(-c4ccccc4)cc3c2)cnc1Cl)c1ccccc1`: in assay [4], the IC50 amounted to 0.268 µM.
On to `O=S(=O)(Nc1cc(-c2cnc3[nH]cc(-c4ccccc4)c3c2)cnc1Cl)c1ccccc1`, for which the IC50 in [1] was determined as 0.039 µM; in assay [2], 0.002 µM; in assay [3], 0.001 µM; in [4], 0.015 µM. The GI50 was greater than 10 µM in the assay with NCI-H460; 1.83 µM in the assay with KARPAS-422; 1.52 µM in the assay with Pfeiffer; greater than 10 µM with U-87 MG; greater than 10 µM in the assay on MCF7; 7.72 µM with T47D.
In [4], `Nc1ccc(-c2cnc(N)c(NS(=O)(=O)c3ccccc3)c2)cn1` displayed an IC50 of 2.97 µM.
As for `O=S(=O)(Nc1cc(-c2cnc3[nH]ccc3c2)cnc1Cl)c1ccccc1`, the IC50 in [1] was 0.035 µM; in assay [2], 0.035 µM; in [3], 0.001 µM; in assay [4] it was 0.097 µM. In addition, the GI50 in the assay with NCI-H460 is greater than 10 µM; in the assay on KARPAS-422, 6.71 µM; in the assay with Pfeiffer, 5.5 µM; in the assay on U-87 MG, greater than 10 µM; with MCF7 it was greater than 10 µM; in the assay on T47D, greater than 10 µM.
